Measured values as given in the NIST ThermoML archive (doi:10.1021/acs.jced.7b01125).
± gives the expanded uncertainty stated by the source.

Assay: xn = mol fraction of the nth substance listed
Conditions: Gas, Buoyancy - hydrostatic balance with magnetic suspension - one sinker

[HH] [hydrogen] + C
Conditions | mass density [kg/m3]
275.01 K, 5005 kPa, x2 = 0.9 | 35.103 ± 0.047
275.01 K, 6005 kPa, x2 = 0.9 | 42.849 ± 0.049
275.01 K, 6005 kPa, x2 = 0.9499 | 45.691 ± 0.052
275.01 K, 7005 kPa, x2 = 0.9 | 50.825 ± 0.051
275.01 K, 7005 kPa, x2 = 0.9499 | 54.384 ± 0.054
275.01 K, 8002 kPa, x2 = 0.9 | 58.973 ± 0.052
275.01 K, 8003 kPa, x2 = 0.9499 | 63.333 ± 0.055
275.01 K, 9002 kPa, x2 = 0.9 | 67.322 ± 0.054
275.01 K, 9003 kPa, x2 = 0.9499 | 72.54 ± 0.057
275.01 K, 10005 kPa, x2 = 0.9 | 75.811 ± 0.055
275.01 K, 10006 kPa, x2 = 0.9499 | 81.955 ± 0.059
275.01 K, 11001 kPa, x2 = 0.4997 | 43.883 ± 0.061
275.01 K, 11005 kPa, x2 = 0.9499 | 91.455 ± 0.06
275.01 K, 11006 kPa, x2 = 0.9 | 84.369 ± 0.057
275.01 K, 12007 kPa, x2 = 0.9 | 92.928 ± 0.058
275.01 K, 12009 kPa, x2 = 0.9499 | 101.013 ± 0.061
275.01 K, 13009 kPa, x2 = 0.9 | 101.458 ± 0.059
275.01 K, 13011 kPa, x2 = 0.9499 | 110.507 ± 0.062
275.01 K, 14003 kPa, x2 = 0.4997 | 55.493 ± 0.077
275.01 K, 14006 kPa, x2 = 0.9 | 109.837 ± 0.06
275.01 K, 14006 kPa, x2 = 0.9499 | 119.787 ± 0.062
275.01 K, 15000 kPa, x2 = 0.4997 | 59.259 ± 0.082
275.01 K, 15008 kPa, x2 = 0.9 | 118.086 ± 0.06
275.01 K, 15018 kPa, x2 = 0.9499 | 128.986 ± 0.062
275.01 K, 16003 kPa, x2 = 0.9 | 126.067 ± 0.061
275.01 K, 16005 kPa, x2 = 0.4997 | 63.009 ± 0.086
275.01 K, 16016 kPa, x2 = 0.9499 | 137.753 ± 0.062
275.01 K, 17006 kPa, x2 = 0.4997 | 66.693 ± 0.091
275.01 K, 17009 kPa, x2 = 0.9 | 133.878 ± 0.061
275.01 K, 17010 kPa, x2 = 0.9499 | 146.15 ± 0.062
275.01 K, 18001 kPa, x2 = 0.4997 | 70.294 ± 0.096
275.01 K, 18006 kPa, x2 = 0.9 | 141.344 ± 0.06
275.01 K, 19020 kPa, x2 = 0.9499 | 161.966 ± 0.061
275.01 K, 19297 kPa, x2 = 0.4997 | 74.901 ± 0.1
275.01 K, 19909 kPa, x2 = 0.9499 | 168.44 ± 0.061
275.02 K, 18019 kPa, x2 = 0.9499 | 154.292 ± 0.062
275.02 K, 19012 kPa, x2 = 0.9 | 148.567 ± 0.061
275.02 K, 19897 kPa, x2 = 0.9 | 154.661 ± 0.071
299.95 K, 3999 kPa, x2 = 0.9 | 24.698 ± 0.042
299.95 K, 16003 kPa, x2 = 0.9 | 107.531 ± 0.053
299.96 K, 999 kPa, x2 = 0.9 | 5.941 ± 0.039
299.96 K, 999 kPa, x2 = 0.9499 | 6.241 ± 0.04
299.96 K, 1999 kPa, x2 = 0.9 | 12.047 ± 0.04
299.96 K, 2000 kPa, x2 = 0.9499 | 12.675 ± 0.041
299.96 K, 2983 kPa, x2 = 0.9499 | 19.18 ± 0.042
299.96 K, 2990 kPa, x2 = 0.9 | 18.241 ± 0.041
299.96 K, 3999 kPa, x2 = 0.9499 | 26.096 ± 0.043
299.96 K, 4999 kPa, x2 = 0.9 | 31.243 ± 0.043
299.96 K, 4999 kPa, x2 = 0.9499 | 33.078 ± 0.045
299.96 K, 5999 kPa, x2 = 0.9 | 37.914 ± 0.044
299.96 K, 6000 kPa, x2 = 0.9499 | 40.236 ± 0.046
299.96 K, 6999 kPa, x2 = 0.9 | 44.708 ± 0.045
299.96 K, 7000 kPa, x2 = 0.9499 | 47.554 ± 0.048
299.96 K, 8001 kPa, x2 = 0.9 | 51.609 ± 0.046
299.96 K, 8001 kPa, x2 = 0.9499 | 55.012 ± 0.048
299.96 K, 9002 kPa, x2 = 0.9 | 58.59 ± 0.047
299.96 K, 9003 kPa, x2 = 0.9499 | 62.59 ± 0.049
299.96 K, 10003 kPa, x2 = 0.9 | 65.636 ± 0.049
299.96 K, 10004 kPa, x2 = 0.9499 | 70.258 ± 0.051
299.96 K, 11001 kPa, x2 = 0.9499 | 77.955 ± 0.052
299.96 K, 11003 kPa, x2 = 0.9 | 72.706 ± 0.049
299.96 K, 12002 kPa, x2 = 0.9 | 79.763 ± 0.05
299.96 K, 12003 kPa, x2 = 0.9499 | 85.693 ± 0.053
299.96 K, 13002 kPa, x2 = 0.9 | 86.81 ± 0.051
299.96 K, 13003 kPa, x2 = 0.9499 | 93.405 ± 0.053
299.96 K, 14003 kPa, x2 = 0.9 | 93.813 ± 0.052
299.96 K, 14006 kPa, x2 = 0.9499 | 101.077 ± 0.054
299.96 K, 15004 kPa, x2 = 0.9499 | 108.622 ± 0.055
299.96 K, 15005 kPa, x2 = 0.9 | 100.739 ± 0.053
299.96 K, 16005 kPa, x2 = 0.9499 | 116.045 ± 0.054
299.96 K, 17007 kPa, x2 = 0.9 | 114.233 ± 0.053
299.96 K, 17007 kPa, x2 = 0.9499 | 123.312 ± 0.055
299.96 K, 18003 kPa, x2 = 0.9 | 120.727 ± 0.054
299.96 K, 18007 kPa, x2 = 0.9499 | 130.371 ± 0.055
299.96 K, 18999 kPa, x2 = 0.9499 | 137.175 ± 0.058
299.96 K, 19011 kPa, x2 = 0.9 | 127.134 ± 0.055
299.96 K, 19426 kPa, x2 = 0.9499 | 140.03 ± 0.044
299.96 K, 19795 kPa, x2 = 0.9 | 131.987 ± 0.064
324.96 K, 999 kPa, x2 = 0.9 | 5.467 ± 0.037
324.96 K, 1002 kPa, x2 = 0.4997 | 3.349 ± 0.029
324.96 K, 1999 kPa, x2 = 0.9 | 11.036 ± 0.037
324.96 K, 2003 kPa, x2 = 0.4997 | 6.689 ± 0.03
324.96 K, 2987 kPa, x2 = 0.4997 | 9.973 ± 0.031
324.96 K, 2999 kPa, x2 = 0.9 | 16.7 ± 0.038
324.96 K, 4000 kPa, x2 = 0.9 | 22.453 ± 0.039
324.96 K, 4001 kPa, x2 = 0.4997 | 13.346 ± 0.032
324.96 K, 4999 kPa, x2 = 0.9 | 28.286 ± 0.04
324.96 K, 5001 kPa, x2 = 0.4997 | 16.663 ± 0.033
324.96 K, 6000 kPa, x2 = 0.9 | 34.198 ± 0.041
324.96 K, 6001 kPa, x2 = 0.4997 | 19.966 ± 0.035
324.96 K, 6999 kPa, x2 = 0.9 | 40.162 ± 0.042
324.96 K, 7000 kPa, x2 = 0.4997 | 23.25 ± 0.037
324.96 K, 8002 kPa, x2 = 0.4997 | 26.528 ± 0.039
324.96 K, 8004 kPa, x2 = 0.9 | 46.209 ± 0.042
324.96 K, 8999 kPa, x2 = 0.4997 | 29.768 ± 0.042
324.96 K, 9000 kPa, x2 = 0.9 | 52.245 ± 0.043
324.96 K, 9001 kPa, x2 = 0.9499 | 55.531 ± 0.045
324.96 K, 9926 kPa, x2 = 0.4997 | 32.763 ± 0.045
